The results in this text go back to PubChem BioAssay (NCI).

Molecules are shown by their SMILES.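 Compound exposure: 48 hours, 5 concentrations, 96-well plates. Definition used: TGI = concentration required for complete inhibition of growth.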 Where a SMILES comes first, the peptide text is derived from it. The star is where a group is joined. Boc = CC(C)(C)OC(=O)*; OBn = c1ccc(CO*)cc1

The test has as its system NCI/ADR-RES ovarian. The test can be described thus: inhibition of tumour cell growth, NCI panel, 48 h.
In the case of `Nc1nc(NCC2(CO)CC(CCc3ccccc3)C2)cc(=O)[nH]1` (stereo not drawn), the TGI is greater than 100 µM.
`O=C1C(Cl)C(c2cccc(Br)c2)N1c1c(O)c(Cl)cc(Br)c1Cl` (stereo not drawn) returned a TGI of 89.8 µM.
The value for `O=C(Nc1ccc(N2C(=O)CSC2c2cccs2)cc1)c1ccc(N2C(=O)CSC2c2cccs2)cc1` (stereo not drawn) was greater than 100 µM; that for `COC1CC(n2ccc(=O)[nH]c2=O)OC1CO` (stereo not drawn) was greater than 100 µM; that for `O=C(Nn1c(-c2ccccc2)nc2ccccc2c1=O)c1ccc(O)cc1` was greater than 100 µM.
Under `C=CCN1C[C@@H](C)N([C@@H](c2ccccc2)c2ccc(C(=O)N(CC)CC)cc2)C[C@@H]1C` stands greater than 100 µM; under `COC(=O)C1=C(OC(=O)/C(=C/c2c(F)cccc2F)c2ccccc2)C(C(=O)OC)[C@@]2(O)[C@@H](C(=O)OC)[C@H](C)C[C@@H]1[C@@H]2C(=O)OC` (stereo partly drawn), greater than 100 µM; under `COC(=O)c1cn(CCCCO)nn1`, greater than 100 µM.
The value for `O=C(O)c1nc2cc(C(F)(F)F)ccc2[nH]c1=O` was greater than 100 µM.
`COc1ccc(C(=O)C(CC2C(=O)CC(C)(C)C(C(=O)C(=O)Nc3c(C)cccc3C)C2=O)c2ccc(OC)cc2)cc1` (stereo not drawn) showed a TGI greater than 100 µM.
Under `Cc1cc(S(=O)(=O)Nc2nc(N)nc(N(C)C)n2)c(SC(C(=O)O)c2ccccc2)cc1Cl` (stereo not drawn) stands greater than 10 µM.
Under `ClCCCC1COc2ccccc2O1` (stereo not drawn) stands greater than 100 µM; under `O=C1C=C(NCCc2cc(Cl)c(O)c(Cl)c2)C(=O)c2[nH]cnc21`, greater than 100 µM.
The value for `CCC(C)C(NC(=O)c1c2ccccc2nc2ccccc12)C(=O)O` (stereo not drawn) was greater than 100 µM.
On to `CCN(CC)C(=O)N[C@@H](Cc1ccccc1)C(=O)NC`, for which the TGI was greater than 100 µM.
Under `N#Cc1nc(NC(=O)c2ccccc2)sc1N` stands greater than 10 µM; under `Cc1cn(C2CC(N=[N+]=[N-])C(CO)O2)c(=O)n(CCCCO)c1=O` (stereo not drawn), greater than 100 µM.
The value for `O=[N+]([O-])c1cc(C(F)(F)F)ccc1S(=O)(=O)N[C@@H]1CCCC[C@H]1NS(=O)(=O)c1ccc(C(F)(F)F)cc1[N+](=O)[O-]` was 10 µM.
In turn, `O=C1CSC(c2ccccc2[N+](=O)[O-])N1c1ccc(-n2c(-c3ccccc3)nc3ccccc3c2=O)cc1` (stereo not drawn) showed a TGI greater than 100 µM.
The value for `CC1=C2c3ccccc3N(S(=O)(=O)c3ccccc3)[C@H]2[C@H](C(=O)N2C3CC4CC[C@@]3(CS2(=O)=O)C4(C)C)CC1` (stereo partly drawn) was greater than 100 µM; that for `N#Cc1c(-c2ccccc2)c(C#N)c(=S)n(C2OCC(O)C(O)C2O)c1N` (stereo not drawn) was greater than 100 µM.
The value for `O=C1NCC2(CCNCC2)N1` was greater than 100 µM; that for `Cc1ccc(C2SC(N)=Nc3c2c(C)nn3C(=O)c2ccc(Cl)cc2)cc1` (stereo not drawn) was greater than 10 µM.
Under `Cc1cn(CCCCOC(=O)NC(CCCNC(N)=O)C(=O)O)c(=O)[nH]c1=O` (stereo not drawn) stands greater than 100 µM.
`COc1cc(S(=O)(=O)Nc2ccc(-c3csc(/N=C\C=C\c4ccccc4)n3)cc2)ccc1Cl` gave a TGI greater than 100 µM.
The value for `O=C1Cc2c(-c3ccccc3)cc(-c3ccc4ccccc4c3)nc2-c2ccccc2N1` was greater than 100 µM.
The value for `O=C(/C=C/c1ccc(O)cc1)c1cc(O)cc(O)c1` was greater than 100 µM.
Take `CC(C)C(NC(=O)CNC(=O)C1CCCN1C(=O)C(NC(=O)OC(C)(C)C)C(C)C)C(=O)NCC(=O)OCc1ccccc1` (stereo not drawn) (Boc-VPGVG-OBn; configuration not given here): the TGI is greater than 100 µM.
The value for `Cc1ccc(-c2n[nH]c(=O)n2N2C(=O)C=CC2=O)cc1` was greater than 100 µM; that for `COC(=O)c1c2c(cc3c1CC1(C3)Cc3ccc4c(c3C1=O)CCC4)CCC2` (stereo not drawn) was greater than 22.5 µM; that for `Cc1ccc(N=Nc2c(C)nn(C(=O)CC(=O)Nc3ccc(Cl)cc3)c2C)cc1C` was greater than 100 µM.
Compound `COC(=O)C(CCSc1ccccc1)C(=O)OC` came in with a TGI greater than 100 µM.
The value for `COc1cc2c(cc1OC)CN1CCc3ccccc3CC1C2` (stereo not drawn) was greater than 100 µM; that for `CC(=O)[C@]1(C)[C@H](C)O[C@](C)(CO)[C@H]1O[Si](C)(C)c1ccccc1` was greater than 100 µM; that for `CC(=O)NC(CCCOC(C)=O)C(=O)NC(CCCOC(C)=O)C(=O)NC(CCCOC(C)=O)C(=O)NC(Cc1ccc([N+](=O)[O-])cc1)C(=O)NCC(=O)OCc1ccccc1` (stereo not drawn) was greater than 100 µM.
Under `N#CC1C(=O)NC2=C(CCOc3c2ccc2ccccc32)C1c1ccc(F)cc1` (stereo not drawn) stands 43.8 µM; under `CSc1n[nH]c2n[nH]c(C)c12`, greater than 100 µM; under `CC1C(=O)CC[C@@]2(C)C(=O)CCCC12O` (stereo partly drawn), greater than 100 µM.
